Data: patent publication US20120064125A1 (priority 2009, published 2012)

Experiments:
Type in all cases: cell-based, Staphylococcus aureus
[1] = tested on: USA300 strain LAC biofilm; experiment: USA300 biofilm dispersal from a titanium surface (flow cell, CLSM); settings: AIP-I ~50 nM
Experimental: FIGS. 6A-B. USA300 biofilm dispersal from a titanium surface. Biofilms of LAC with plasmid pCM12 were grown for two days in the modified flow cell chamber (FIG. 2) that contains titanium as a substratum. AIP-I was added to the flow cell media at ˜50 nM final concentration, and biofilm integrity was monitored for another 20 hr. Each image depiction is a reconstruction of a z series of CLSM images, and each side of a grid square is 20 μm. (FIG. 6A) Wild-type LAC with pCM12. (FIG. 6B) LAC ΔAgr::Tet mutant with pCM12.
Biofilm Assays. For biofilms grown on glass, flow cell biofilm growth, confocal scanning laser microscopy (CSLM), and computer image analysis were performed as previously described (Boles and Horswill, 2008). To monitor biofilm growth, LAC was transformed with GFP-expressing plasmid pALC2084 (Bateman et al., 2001), and the growth medium was supplemented with 1 μg/ml Cam and 20 ng/ml anhydrotetracycline for plasmid maintenance and induction of GFP expression. […] For biofilm dispersal tests, AIP type I (AIP-I) was synthesized and quantified using an intein system (Malone et al., 2007), and biofilm dispersal tests were performed as previously described (Boles and Horswill, 2008). […] LAC biofilm integrity was monitored at 6 hr and 22 hr, and COMSTAT analysis was performed to quantify the biofilm properties. […]

[2] = tested on: USA300 strain LAC biofilm; experiment: USA300 biofilm dispersal from a glass surface (flow cell, CLSM); settings: AIP-I ~50 nM
Experimental: FIGS. 1A-B. USA300 biofilm dispersal from a glass surface. USA300 strain LAC with plasmid pALC2084 was inoculated into a once-through flow cell with a glass substratum and incubated for two days. AIP-I (˜50 nM) was added to the flow cell media and biofilm integrity was monitored for 20 hr. For each image depiction, a z series of images was obtained with CLSM and reconstructed with Volocity software, and each side of a grid square is 20 μm in the image reconstruction. (FIG. 1A) Wild-type LAC with pALC2084. (FIG. 1B) LAC ΔAgr:Tet mutant with pALC2084.
Biofilm Assays. […] For biofilm dispersal tests, AIP type I (AIP-I) was synthesized and quantified using an intein system (Malone et al., 2007), and biofilm dispersal tests were performed as previously described (Boles and Horswill, 2008). […] LAC biofilm integrity was monitored at 6 hr and 22 hr, and COMSTAT analysis was performed to quantify the biofilm properties.
USA300 has a functional biofilm dispersal pathway. […] Biofilm integrity was monitored using confocal laser scanning microscopy (CLSM), and as anticipated, the LAC biofilm appeared as a confluent layer ˜20 μm thick (FIG. 1A). […] In scanning the glass substratum, remaining live cells could not be detected, indicating the biomass completely dispersed from the surface.

[3] = tested on: USA300 strain LAC; settings: 48 hr titanium biofilm, AIP ~50 nM for 24 hr, effluent cells tested with rifampicin and levofloxacin
Experimental: In parallel, biomass was detached (white triangles, dashed-line error bars) from the coupons with AIP-I addition and collected from flow cell effluents. The detached biomass was treated with identical rifampicin/levofloxacin concentrations and surviving CFU's determined.
Antibiotic susceptibility. […] To determine antibiotic resistance of dispersed biofilms, AIP was added (˜50 nM) to the media reservoir after 48 hr growth, and the biofilm effluent was collected on ice for 24 hr. Cell concentration was adjusted to the equivalent of one coupon of biomass, or ˜1×10^8 CFU. Cells were treated as described above with the exception that cells were pelleted by centrifugation at 13,000 RPM and then resuspended in 1 mL PBS before sonication.
To test antibiotic susceptibility of dispersed cells, LAC biofilms were grown for 48 hr on titanium, exposed to AIP (˜50 nM) for 24 hr, and detached cells were collected from the effluent.

[4] = LAC ΔAgr::Tet mutant (Agr inactivated), 20 hr

## YSTCDFIM (thiolactone bridge; Synechocystis PCC6803) [AIP-I, made with an intein system]
[1]; [4]
  biofilm response to AIP-I: did not respond to AIP-I treatment
[1]; wild-type LAC, two day biofilm, 20 hr post addition
  biofilm dispersal (biomass): complete dispersal of the biomass
[2]; [4]
  biofilm integrity after signal addition: no effect on the biofilm integrity
[2]; wild-type LAC, 48 hr biofilm, 20 hr after addition
  biofilm integrity (biomass) after signal addition: complete loss of biomass
[3]
  antibiotic susceptibility of cells after AIP-mediated dispersal: significantly more antibiotic susceptible
